The supplement of paper PMC11451515

What was measured:
Conditions in all cases: 48 h
NOMO1 [1] = assay: cell viability relative to DMSO control; higher = less cytotoxic
Procedure, shortened: (§1)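 Cells were incubated for 48 h at 37°C before CellTiter-Glo One luminescence was read. The cells were NOMO1 or SEM (500 cells/well) or P12-Ichikawa (1000 cells/well) leukemia cells, adapted for at least four passages in each medium and seeded in 1536-well plates (5 μl). Dosing used library compounds in DMSO applied by pin over 11 threefold points, 47 μM to 0.79 nM. Viability is the per-plate percentage of DMSO wells, with cell-free wells as background.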

P12-Ichikawa [2] = assay: as above
Procedure, shortened: as §1

SEM cells [3] = assay: as above
Procedure, shortened: as §1

NOMO1 [4] = assay: AUC of viability dose-response curve (% viability x log10 dose units); higher = less sensitive
Procedure, shortened: (§2)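 Leukemia cells adapted to each medium were seeded in 1536-well plates (500 or 1000 cells/well). They were dosed with library compounds in DMSO at 11 threefold doses, 47 μM to 0.79 nM, for 48 h at 37°C. CellTiter-Glo One luminescence was normalised per plate to DMSO and cell-free wells. Area under the curve was integrated by trapezoidal rule over log10 doses on a four-parameter log-logistic fit; curves exceeding full viability were scaled and curves failing quality control removed.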

P12-Ichikawa [5] = assay: as above
Procedure, shortened: as §2

SEM cells [6] = assay: as above
Procedure, shortened: as §2

C=CC(=O)Nc1cccc(Sc2nc(Nc3ccc(N4CCN(C)CC4)cc3)ncc2Cl)c1
cell viability [%]
Conditions | NOMO1 [1] | P12-Ichikawa [2] | SEM cells [3]
HPLM + 10% dialyzed FBS, 0.000781 µM | 102 | 105 | 91.4
HPLM + 10% dialyzed FBS, 0.00234 µM | 103 | 108 | 105
HPLM + 10% dialyzed FBS, 0.00702 µM | 101 | 109 | 113
HPLM + 10% dialyzed FBS, 0.0211 µM | 104 | 112 | 116
HPLM + 10% dialyzed FBS, 0.0632 µM | 110 | 107 | 114
HPLM + 10% dialyzed FBS, 0.19 µM | 109 | 121 | 116
HPLM + 10% dialyzed FBS, 0.569 µM | 127 | 122 | 104
HPLM + 10% dialyzed FBS, 1.71 µM | 114 | 118 | 86.4
HPLM + 10% dialyzed FBS, 5.12 µM | 117 | 115 | 71.1
HPLM + 10% dialyzed FBS, 15.4 µM | 98.5 | 118 | 86
HPLM + 10% dialyzed FBS, 46.1 µM | 24.9 | 22.2 | 3.8
RPMI 5 mM glucose + 10% FBS, 0.000781 µM | 97.3 | 95.7 | 53.5
RPMI 5 mM glucose + 10% FBS, 0.00234 µM | 104 | 107 | 68.7
RPMI 5 mM glucose + 10% FBS, 0.00702 µM | 121 | 113 | 81.6
RPMI 5 mM glucose + 10% FBS, 0.0211 µM | 104 | 121 | 69.1
RPMI 5 mM glucose + 10% FBS, 0.0632 µM | 101 | 116 | 82.7
RPMI 5 mM glucose + 10% FBS, 0.19 µM | 120 | 122 | 81.2
RPMI 5 mM glucose + 10% FBS, 0.569 µM | 109 | 120 | 91.7
RPMI 5 mM glucose + 10% FBS, 1.71 µM | 116 | 115 | 60.6
RPMI 5 mM glucose + 10% FBS, 5.12 µM | 113 | 124 | 41.3
RPMI 5 mM glucose + 10% FBS, 15.4 µM | 119 | 117 | 65.9
RPMI 5 mM glucose + 10% FBS, 46.1 µM | 8.7 | 19.2 | 2.06
RPMI 5 mM glucose + 10% dialyzed FBS, 0.000781 µM | 95.4 | 104 | 88.8
RPMI 5 mM glucose + 10% dialyzed FBS, 0.00234 µM | 101 | 115 | 98.2
RPMI 5 mM glucose + 10% dialyzed FBS, 0.00702 µM | 97.1 | 110 | 97.6
RPMI 5 mM glucose + 10% dialyzed FBS, 0.0211 µM | 92.1 | 114 | 99.9
RPMI 5 mM glucose + 10% dialyzed FBS, 0.0632 µM | 112 | 118 | 118
RPMI 5 mM glucose + 10% dialyzed FBS, 0.19 µM | 93 | 120 | 114
RPMI 5 mM glucose + 10% dialyzed FBS, 0.569 µM | 98.2 | 123 | 72.9
RPMI 5 mM glucose + 10% dialyzed FBS, 1.71 µM | 97.5 | 124 | 80.9
RPMI 5 mM glucose + 10% dialyzed FBS, 5.12 µM | 107 | 123 | 57.3
RPMI 5 mM glucose + 10% dialyzed FBS, 15.4 µM | 107 | 126 | 58.5
RPMI 5 mM glucose + 10% dialyzed FBS, 46.1 µM | 11.6 | 26.3 | 2.75

NOMO1 [4]
Conditions | AUC of viability dose-response curve
HPLM + 10% dialyzed FBS | 454
RPMI 5 mM glucose + 10% FBS | 455
RPMI 5 mM glucose + 10% dialyzed FBS | 456

C=C(c1ccc(C(=O)O)cc1)c1cc2c(cc1C)C(C)(C)CCC2(C)C
Conditions | cell viability [%]
P12-Ichikawa [2], HPLM + 10% dialyzed FBS, 0.000781 µM | 113
P12-Ichikawa [2], HPLM + 10% dialyzed FBS, 0.00234 µM | 119
P12-Ichikawa [2], HPLM + 10% dialyzed FBS, 0.00702 µM | 121
P12-Ichikawa [2], HPLM + 10% dialyzed FBS, 0.0211 µM | 121
P12-Ichikawa [2], HPLM + 10% dialyzed FBS, 0.0632 µM | 126
P12-Ichikawa [2], HPLM + 10% dialyzed FBS, 0.19 µM | 129
P12-Ichikawa [2], HPLM + 10% dialyzed FBS, 0.569 µM | 125
P12-Ichikawa [2], HPLM + 10% dialyzed FBS, 1.71 µM | 120
P12-Ichikawa [2], HPLM + 10% dialyzed FBS, 5.12 µM | 124
P12-Ichikawa [2], HPLM + 10% dialyzed FBS, 15.4 µM | 117
P12-Ichikawa [2], HPLM + 10% dialyzed FBS, 46.1 µM | 114
SEM cells [3], RPMI 5 mM glucose + 10% dialyzed FBS, 0.000781 µM | 95
SEM cells [3], RPMI 5 mM glucose + 10% dialyzed FBS, 0.00234 µM | 110
SEM cells [3], RPMI 5 mM glucose + 10% dialyzed FBS, 0.00702 µM | 134
SEM cells [3], RPMI 5 mM glucose + 10% dialyzed FBS, 0.0211 µM | 116
SEM cells [3], RPMI 5 mM glucose + 10% dialyzed FBS, 0.0632 µM | 116
SEM cells [3], RPMI 5 mM glucose + 10% dialyzed FBS, 0.19 µM | 125
SEM cells [3], RPMI 5 mM glucose + 10% dialyzed FBS, 0.569 µM | 120
SEM cells [3], RPMI 5 mM glucose + 10% dialyzed FBS, 1.71 µM | 118
SEM cells [3], RPMI 5 mM glucose + 10% dialyzed FBS, 5.12 µM | 111
SEM cells [3], RPMI 5 mM glucose + 10% dialyzed FBS, 15.4 µM | 99.3
SEM cells [3], RPMI 5 mM glucose + 10% dialyzed FBS, 46.1 µM | 83.5

AUC of viability dose-response curve
Conditions | NOMO1 [4] | P12-Ichikawa [5] | SEM cells [6]
HPLM + 10% dialyzed FBS | 422 | 477 | 465
RPMI 5 mM glucose + 10% FBS | 434 | 470 | 465
RPMI 5 mM glucose + 10% dialyzed FBS | 431 | 468 | 461

Nc1ccc(C(=O)Nc2cccc(-c3nc(N4CCOCC4)c4oc5ncccc5c4n3)c2)cn1
cell viability [%]
Conditions | NOMO1 [1] | P12-Ichikawa [2] | SEM cells [3]
HPLM + 10% dialyzed FBS, 0.000781 µM | 122 | 125 | 119
HPLM + 10% dialyzed FBS, 0.00234 µM | 118 | 122 | 120
HPLM + 10% dialyzed FBS, 0.00702 µM | 135 | 125 | 130
HPLM + 10% dialyzed FBS, 0.0211 µM | 121 | 121 | 113
HPLM + 10% dialyzed FBS, 0.0632 µM | 115 | 120 | 115
HPLM + 10% dialyzed FBS, 0.19 µM | 122 | 127 | 107
HPLM + 10% dialyzed FBS, 0.569 µM | 128 | 120 | 96.3
HPLM + 10% dialyzed FBS, 1.71 µM | 98.8 | 124 | 116
HPLM + 10% dialyzed FBS, 5.12 µM | 67.7 | 97.3 | 90.1
HPLM + 10% dialyzed FBS, 15.4 µM | 74.5 | 100 | 85.8
HPLM + 10% dialyzed FBS, 46.1 µM | 49.3 | 87.8 | 4.82
RPMI 5 mM glucose + 10% FBS, 0.000781 µM | 118 | 118 | 88
RPMI 5 mM glucose + 10% FBS, 0.00234 µM | 123 | 119 | 80.1
RPMI 5 mM glucose + 10% FBS, 0.00702 µM | 129 | 115 | 71.8
RPMI 5 mM glucose + 10% FBS, 0.0211 µM | 104 | 114 | 75.2
RPMI 5 mM glucose + 10% FBS, 0.0632 µM | 118 | 124 | 83.9
RPMI 5 mM glucose + 10% FBS, 0.19 µM | 110 | 112 | 68.1
RPMI 5 mM glucose + 10% FBS, 0.569 µM | 115 | 103 | 71.7
RPMI 5 mM glucose + 10% FBS, 1.71 µM | 108 | 101 | 77.4
RPMI 5 mM glucose + 10% FBS, 5.12 µM | 82.8 | 81.5 | 57.9
RPMI 5 mM glucose + 10% FBS, 15.4 µM | 83.4 | 94.7 | 38.9
RPMI 5 mM glucose + 10% FBS, 46.1 µM | 91 | 77.2 | 3.46
RPMI 5 mM glucose + 10% dialyzed FBS, 0.000781 µM | 115 | – | 129
RPMI 5 mM glucose + 10% dialyzed FBS, 0.00234 µM | 124 | – | 119
RPMI 5 mM glucose + 10% dialyzed FBS, 0.00702 µM | 107 | – | 116
RPMI 5 mM glucose + 10% dialyzed FBS, 0.0211 µM | 113 | – | 111
RPMI 5 mM glucose + 10% dialyzed FBS, 0.0632 µM | 110 | – | 114
RPMI 5 mM glucose + 10% dialyzed FBS, 0.19 µM | 119 | – | 102
RPMI 5 mM glucose + 10% dialyzed FBS, 0.569 µM | 91 | – | 104
RPMI 5 mM glucose + 10% dialyzed FBS, 1.71 µM | 84.9 | – | 107
RPMI 5 mM glucose + 10% dialyzed FBS, 5.12 µM | 65 | – | 79.1
RPMI 5 mM glucose + 10% dialyzed FBS, 15.4 µM | 73.7 | – | 64
RPMI 5 mM glucose + 10% dialyzed FBS, 46.1 µM | 61.5 | – | 5.84

AUC of viability dose-response curve
Conditions | HPLM + 10% dialyzed FBS | RPMI 5 mM glucose + 10% FBS | RPMI 5 mM glucose + 10% dialyzed FBS
NOMO1 [4] | 410 | 442 | 403
P12-Ichikawa [5] | 450 | 428 | 430

CC(=O)OCC(=O)[C@@]1(O)CC[C@H]2[C@@H]3CCC/4=C/C(=O)CC[C@]4(C)[C@H]3C(=O)C[C@]12C
SEM cells [3], HPLM + 10% dialyzed FBS
Conditions | cell viability [%]
0.000781 µM | 106
0.00234 µM | 109
0.00702 µM | 112
0.0211 µM | 101
0.0632 µM | 107
0.19 µM | 117
0.569 µM | 84.5
1.71 µM | 51.8
5.12 µM | 112
15.4 µM | 111
46.1 µM | 118

AUC of viability dose-response curve
Conditions | NOMO1 [4] | P12-Ichikawa [5] | SEM cells [6]
HPLM + 10% dialyzed FBS | 464 | 460 | 466
RPMI 5 mM glucose + 10% FBS | 476 | 470 | 466
RPMI 5 mM glucose + 10% dialyzed FBS | 459 | 430 | 445
